Reference: patent US12702715B2, “Targeted RNA degradation allows precision repurposing of protein-targeted small molecule medicines to RNA” (University of Florida Research Foundation, Incorporated, priority 2020, dated 2026)
“Also recorded” adds a separate entry of the source.

How the values were obtained:
Type in all cases: cell-based, human
[1] = test system: miR-21; assay: RT-qPCR of mature miR-21 levels in MDA-MB-231 cells
Method: Cell Culture. Cells were cultured at 37° C. and 5% CO2. […] For compound treatment, compound stocks either in DMSO or water were diluted in growth medium and added to cells for the indicated time. […] After transfection, the medium was replaced with growth medium containing the compound of interest, prepared as described above. The RNase L-targeting siRNA or a control siRNA was transfected with Lipofectamine RNAiMAX reagent (Invitrogen) per the manufacturer's protocol.
(§1) RNA Isolation and Quantitative Real-Time PCR (RT-qPCR). After treatment, total RNA was extracted and purified by using the Zymo Quick-RNA mini prep kit per the manufacturer's protocol. Reverse Transcription (RT) for mature miRNAs as well as pri- and pre-miR-21 was completed on 200 ng of RNA by using a miScript 11 RT kit (QIAGEN) according to manufacturer's protocol. RT of mRNAs was performed by using QScript kit (Quanta Bio). An Applied Biosystems QS5 384-well PCR system was used to complete qPCR experiments using Power Sybr Green Mater Mix (Life Technologies) as described previously^6.

[2] = test system: pre-miR-21; assay: RT-qPCR of pre-miR-21 levels in MDA-MB-231 cells
Method: Cell Culture. Cells were cultured at 37° C. and 5% CO2. MDA-MB-231 cells (HTB-26, ATCC) were cultured in RMPI 1640 medium with L-glutamine & 25 mM HEPES supplemented with 1× Antibiotic/Antimycotic solution (Corning) and 10% FBS. MCF-10A cells (CRL-10317, ATCC) were cultured in 1×DMEM/F12 50/50 with L-glutamine & 15 mM HEPES (Corning) supplemented with 20% FBS, 1× Antibiotic/Antimycotic solution, 20 ng/mL human epidermal growth factor (Pepro Tech, Inc.), 10 μg/mL insulin (Sigma-Aldrich), and […] hydrocortisone (Pfaltz & Bauer). For compound treatment, compound stocks either in DMSO or water were diluted in growth medium and added to cells for the indicated time. Plasmid DNA to overexpress pre-miR-21 in pcDNA 3.1 (Addgene 21114) or a plasmid DNA encoding the pre-miR-21 mutant (custom purchased from GenScript USA, Inc.) was transfected with jetPRIME per the manufacturer's protocol. After transfection, the medium was replaced with growth medium containing the compound of interest, prepared as described above. The RNase L-targeting siRNA or a control siRNA was transfected with Lipofectamine RNAiMAX reagent (Invitrogen) per the manufacturer's protocol.
as §1

[3] = test system: RTK / phosphorylation of ERK (pERK); assay: Western blot of ERK phosphorylation (functional RTK inhibition) in MDA-MB-231 cells
Method: Western Blotting. MDA-MB-231 cells were plated in 6-well plates. […] The cells were harvested by trypsinization, and total protein was extracted with MPER (Mammalian Protein Extraction Reagent, Thermo Scientific) as previously described^6. Protein concentrations were determined by using a Pierce Micro BCA Protein Assay kit (Fisher Scientific). […] ImageJ software was used for quantification of the protein bands. […] In each case, the secondary antibody was diluted two times more than the primary antibody.

[4] = test system: pre-miR-21; assay: Cellular Chem-CLIP and C-Chem-CLIP to study occupancy of pre-miR-21; conditions: increasing concentrations, 4 constant
Method: Cellular Chem-CLIP and C-Chem-CLIP to Study Occupancy of pre-miR-2L MDA-MB-231 cells in 100 mm dishes (~90% confluency) were treated with 4 or 5 for 6 h at 37° C. Then the cells were washed with 1×DPBS and cross-linked under 365 nm light for 10 min in ice cold 1×DPBS. The cells were harvested by scraping and pelleted by centrifugation. Total RNA was extracted by using the miRNeasy mini kit (Qiagen) per the manufacturer's protocol. Approximately 50 μg of total RNA was clicked to disulfide biotin azide as described in the “In Vitro Chem-CLIP and Competitive Chem-CLIP (C-Chem-CLIP)” section. Streptavidin beads (10 μL) were added, and the samples were incubated, with shaking, for 2 h at 37° C. The beads were then washed with 1× Wash Buffer (10 mM Tris-HCl, pH 7.0, 4 M NaCl, 1 mM EDTA) three times and then once with nanopure water. Bound RNAs were eluted from the beads by incubating with 200 μL of 1:1 TCEP (200 mM) pre-reduced with 600 mM of K2CO3 for 30 min at 37° C. The reaction was quenched by treatment with an equal volume of 400 mM of iodoacetamide for 30 min at room temperature. The supernatant was collected, and the beads were washed once with nanopure water: the water was added to the eluant. The combined eluant was cleaned up using RNAClean XP beads according to the manufacturer's protocol. The obtained RNA was then subjected to RT-qPCR. Enrichment of pre-miR-21 was calculated as previously described^6. Cellular C-Chem-CLIP was completed by pre-treating with 1 (1 or 5 μM) or 3 (1 or 5 μM) for 6 h, followed by dosing with 4 (5 μM) for 6 h. Sample preparation and data analysis were completed as described above for cellular Chem-CLIP studies.

[5] = test system: PTEN; assay: PTEN luciferase assay; conditions: MDA-MB-231
Method: PTEN Luciferase Assay. To study de-repression of PTEN, a luciferase-based cellular assay was performed as previously described^6. Briefly, MDA-MB-231 cells (~60% confluency) in 48-well plates were co-transfected with plasmids encoding Renilla luciferase (for normalization) and firefly luciferase fused to the 3′ UTR of PTEN by using Lipofectamine 2000 according to the manufacturer's protocol. After 5 h, the cells were treated with the compounds diluted in growth medium. Luciferase assay were then completed as previously described^4, 9.

[6] = test system: FLT3; assay: FLT3 degradation Western blot in MDA-MB-231 cells; conditions: MDA-MB-231
Method: In each case, the secondary antibody was diluted two times more than the primary antibody.

## Cc1ncsc1-c1ccc(CNC(=O)[C@@H]2C[C@@H](O)CN2C(=O)[C@@H](NC(=O)NCCOCCOCCOCCOCCC(=O)NCCN2CCN(c3ccc4[nH]c(-c5c(N)c6c(F)cccc6[nH]c5=O)nc4c3)CC2)C(C)(C)C)cc1 [Compound 3, Protac-Dovitinib]
[1]; MDA-MB-231
  fold increase in potency / miR-21 inhibitory activity compared with 1: similar
[1]; MDA-MB-231, RT-qPCR
  mature miR-21 levels: reduced
[2]; MDA-MB-231, RT-qPCR
  pre-miR-21 levels: increased; also recorded: boosted
[2]; constant concentration of 2 (1 μM), increasing competitor
  competition of cleavage of pre-miR-21 by RIBOTAC 2: abated the cleavage
[3]
  fold increase of RTK inhibition relative to 1: 5 fold
[3]; Homo sapiens, MDA-MB-231
  IC50: 20 nM
[3]; Western blot
  inhibition of ERK phosphorylation compared to 1: more potent than 1
[4]
  competition of pull-down of pre-miR-21 with 4: similarly diminished
[5]
  PTEN expression (luciferase-based assay): derepressed
[6]
  FLT3 levels / degradation: low nanomolar activity; also recorded: induced degradation of FLT3 in a dose-dependent manner
